Measured values reported in patent publication US20210338846A1, “COMPETITIVE PROSTATE-SPECIFIC MEMBRANE ANTIGEN (PSMA) BINDING AGENTS FOR REDUCTION OF NON-TARGET ORGAN UPTAKE OF RADIOLABELED PSMA INHIBITORS FOR PSMA POSITIVE TUMOR IMAGING AND RADIOPHARMACEUTICAL THERAPY” (The Johns Hopkins University, priority 2018, published 2021).
Where two headings read alike, the source gives them in different places.

Legend:
[1] = tested on: PSMA+ PC-3 PiP and PSMA− PC-3 flu tumors; type: in vivo; settings: early time points
[2] = tested on: PSMA+ PC-3 PiP and PSMA− PC-3 flu tumors
[3] = 1 h, co-injection 0.5 nmole YC-I-27
[4] = 2 hours (footnote a), co-injection 0.5 nmole YC-I-27
[5] = 24 h, co-injection 0.5 nmole YC-I-27

Structure (SMILES): O=C(O)CC[C@H](NC(=O)N[C@@H](CCCCN(Cc1ccc(I)cc1)C(=O)CCCCNC(=O)CN1CCN(CC(=O)O)CCN(CC(=O)O)CCN(CC(=O)O)CC1)C(=O)O)C(=O)O [VK-02-90]
- effect of competing inhibitor on uptake of [125I]VK-02-90-Lu in kidneys, salivary glands and lacrimal glands [1]: effective CI

Structure (SMILES): O=C(O)CC[C@H](NC(=O)N[C@@H](CCC(=O)NCCc1ccc([125I])cc1)C(=O)O)C(=O)O [[^125I]HS-549]
- Biodistribution: Blood ([2]; 1 h, No CI): 5.9 ± 1.0 % injected dose/gram
- Biodistribution: Flu tumor ([2]; 1 h, No CI): 2.2 ± 0.5 % injected dose/gram
- Biodistribution: PiP tumor ([2]; 1 h, No CI): 78 ± 19 % injected dose/gram
- Biodistribution: kidneys ([2]; 1 h, No CI): 106 ± 19 % injected dose/gram
- Biodistribution: spleen ([2]; 1 h, No CI): 6.8 ± 3.4 % injected dose/gram
- Biodistribution: stomach ([2]; 1 h, No CI): 0.9 ± 0.2 % injected dose/gram
- Biodistribution: thyroid ([2]; 1 h, No CI): 1.2 ± 0.4 % injected dose/gram
- Biodistribution: Blood [2, 3]: 2.6 ± 0.6 % injected dose/gram
- Biodistribution: Flu tumor [2, 3]: 1.0 ± 0.45 % injected dose/gram
- Biodistribution: Lacrimal gland [2, 3]: 1.1 ± 0.4 % injected dose/gram
- Biodistribution: PiP tumor [2, 3]: 31 ± 4.2 % injected dose/gram
- Biodistribution: Salivary gland [2, 3]: 1.0 ± 0.2 % injected dose/gram
- Biodistribution: kidneys [2, 3]: 12.1 ± 1.9 % injected dose/gram
- Biodistribution: spleen [2, 3]: 0.8 ± 0.2 % injected dose/gram
- Biodistribution: stomach [2, 3]: 0.8 ± 0.3 % injected dose/gram
- Biodistribution: thyroid [2, 3]: 5.6 ± 9.2 % injected dose/gram
- Biodistribution: Blood [2, 4]: 0.8 ± 0.1 % injected dose/gram
- Biodistribution: Flu tumor [2, 4]: 0.3 ± 0.15 % injected dose/gram
- Biodistribution: Lacrimal gland [2, 4]: 0.5 ± 0.3 % injected dose/gram
- Biodistribution: PiP tumor [2, 4]: 39 ± 4 % injected dose/gram
- Biodistribution: Salivary gland [2, 4]: 0.4 ± 0.2 % injected dose/gram
- Biodistribution: kidneys [2, 4]: 2.8 ± 0.8 % injected dose/gram
- Biodistribution: spleen [2, 4]: 0.4 ± 0.1 % injected dose/gram
- Biodistribution: stomach [2, 4]: 0.3 ± 0.1 % injected dose/gram
- Biodistribution: thyroid [2, 4]: 0.3 ± 0.1 % injected dose/gram
- Biodistribution: Blood ([2]; 4 h, No CI): 2.9 ± 0.3 % injected dose/gram
- Biodistribution: Flu tumor ([2]; 4 h, No CI): 1.5 ± 0.3 % injected dose/gram
- Biodistribution: PiP tumor ([2]; 4 h, No CI): 75 ± 13 % injected dose/gram
- Biodistribution: kidneys ([2]; 4 h, No CI): 97 ± 39 % injected dose/gram
- Biodistribution: spleen ([2]; 4 h, No CI): 2.7 ± 0.8 % injected dose/gram
- Biodistribution: stomach ([2]; 4 h, No CI): 0.5 ± 0.2 % injected dose/gram
- Biodistribution: thyroid ([2]; 4 h, No CI): 0.7 ± 0.3 % injected dose/gram
- Biodistribution: Blood ([2]; 21 hours (footnote b), No CI): 1.4 ± 0.4 % injected dose/gram
- Biodistribution: Flu tumor ([2]; 21 hours (footnote b), No CI): 0.4 ± 0.2 % injected dose/gram
- Biodistribution: PiP tumor ([2]; 21 hours (footnote b), No CI): 23 ± 2 % injected dose/gram
- Biodistribution: kidneys ([2]; 21 hours (footnote b), No CI): 3.1 ± 1.6 % injected dose/gram
- Biodistribution: spleen ([2]; 21 hours (footnote b), No CI): 0.3 ± 0.1 % injected dose/gram
- Biodistribution: stomach ([2]; 21 hours (footnote b), No CI): 0.1 ± 0.04 % injected dose/gram
- Biodistribution: thyroid ([2]; 21 hours (footnote b), No CI): 0.4 ± 0.05 % injected dose/gram
- Biodistribution: Blood [2, 5]: 0.6 ± 0.3 % injected dose/gram
- Biodistribution: Flu tumor [2, 5]: 0.2 ± 0.2 % injected dose/gram
- Biodistribution: Lacrimal gland [2, 5]: 0.2 ± 0.1 % injected dose/gram
- Biodistribution: PiP tumor [2, 5]: 35 ± 5 % injected dose/gram
- Biodistribution: Salivary gland [2, 5]: 0.2 ± 0.1 % injected dose/gram
- Biodistribution: kidneys [2, 5]: 0.7 ± 0.3 % injected dose/gram
- Biodistribution: spleen [2, 5]: 0.1 ± 0.07 % injected dose/gram
- Biodistribution: stomach [2, 5]: 0.1 ± 0.05 % injected dose/gram
- Biodistribution: thyroid [2, 5]: 0.5 ± 0.8 % injected dose/gram
